Assay results taken from patent US6080772A, “Thiazole compounds and methods of modulating signal transduction” (Sugen, Inc., priority 1997, dated 2000).
Read-outs that look alike come from different tables or passages of the source.

Legend:
primary adipocytes = test: Primary adipocyte glucose uptake assay (14C glucose); conditions: test compound 50 mM without insulin, compared to samples containing only insulin (final concentration=100 μm)
insulin receptor (IR) = test: Phosphotyrosine enzyme linked immunosorbent assay: pTyr on insulin receptor in NIH3T3 cells over-expressing human IR (H25 cells); conditions: for ACTIVITY (compared to control) / CONC.: Table I; for CONC.: concentration of the compound which produces the percentage increase in phosphotyrosine over the vanadate control, 90 min incubation, no insulin; for EC50: read-out: ACTIVITY EC50

In the case of `O=[N+]([O-])c1cnc(Sc2nnc(O)n2C2CCCCC2)s1` [Compound 6, 4-Cyclohexyl-3-hydroxy-5-[(5-nitrothiazol-2-yl)mercapto]-1,2,4-triazole], the “response in the primary adipocyte glucose uptake assay compared with the insulin control” value (“response … compared with the insulin control” below) (primary adipocytes) is reported as “did not give a response greater than or equal to the insulin control”, the “ACTIVITY (compared to control)” value (insulin receptor (IR); […]) is reported as 30% and the CONC. (insulin receptor (IR)) is reported as 100 µM. For the same compound, the “increase (PTYR)” value (insulin receptor (IR); Table II, at 100 μM) was 50%.

`CC(C)n1c(Sc2ncc([N+](=O)[O-])s2)nc2cc(C(F)(F)F)ccc21` [Compound 95, 1-Isopropyl-2-[(5-nitrothiazol-2-yl)mercapto]-5-(trifluoromethyl)benzimidazole] was tested, and the “response … compared with the insulin control” value (primary adipocytes) was “did not give a response greater than or equal to the insulin control” and the EC50 (insulin receptor (IR); Table II, […], no lot stated) was > 100 µM.

`Cc1nccc(C(F)(F)F)c1-c1nnc(Sc2ncc([N+](=O)[O-])s2)o1` [Compound 86, 2-[2-Methyl-4-(trifluoromethyl)pyrid-3-yl]-5-[(5-nitrothiazol-2-yl)mercapto]-1,3,4-oxadiazole] was tested, and the “response … compared with the insulin control” value (primary adipocytes) was “did not give a response greater than or equal to the insulin control” and the “increase in PTYR” value (insulin receptor (IR); Table II, at 25 μM) was 59%.

`CCCCCC(=O)Nc1ccc(-n2nnnc2Sc2ncc([N+](=O)[O-])s2)cc1` [Compound 89, 1-[4-(n-Hexanoylamino)phenyl]-5-[(5-nitrothiazol-2-yl)mercapto]tetrazole] was tested, and the “response … compared with the insulin control” value (primary adipocytes) was “did not give a response greater than or equal to the insulin control”.

In the case of `O=[N+]([O-])c1cnc(Sc2nc3cc4c(cc3[nH]2)OCCO4)s1` [Compound 90, 7-[(5-Nitrothiazol-2-yl)mercapto]-benzimidazo[5,6-b]1,4-dioxane], the “response … compared with the insulin control” value (primary adipocytes) is reported as “did not give a response greater than or equal to the insulin control”.

`O=[N+]([O-])c1cnc(Sc2nnnn2-c2cccc(O)c2)s1` [Compound 88, 1-(3-Hydroxyphenyl)-5-[(5-nitrothiazol-2-yl)mercapto]tetrazole] was tested, and the “response … compared with the insulin control” value (primary adipocytes) was “did not give a response greater than or equal to the insulin control”.

With `O=[N+]([O-])c1cnc(Sc2nnc(O)n2-c2ccccc2C(F)(F)F)s1` [Compound 8, 3-hydroxy-5-[(5-nitrothiazol-2-yl)mercapto]-4-[2-(trifluoromethyl)phenyl]-1,2,4-triazole] the “response … compared with the insulin control” value (primary adipocytes) was “did not give a response greater than or equal to the insulin control”, the “ACTIVITY (compared to control)” value (insulin receptor (IR); […]) was 30% and the CONC. (insulin receptor (IR)) was 24 µM.

With `O=[N+]([O-])c1cnc(Sc2nnnn2-c2ccccc2)s1` [Compound 91, 5-[(5-Nitrothiazol-2-yl)mercapto]-1-phenyltetrazole] the “response … compared with the insulin control” value (primary adipocytes) was “did not give a response greater than or equal to the insulin control”.

For `O=[N+]([O-])c1cnc(Sc2nnc(O)n2-c2ccccc2)s1` [Compound 5, 3-hydroxy-5-[(5-nitrothiazol-2-yl)mercapto]-4-phenyl-1,2,4-triazole], the “response … compared with the insulin control” value (primary adipocytes) was “did not give a response greater than or equal to the insulin control”, the “ACTIVITY (compared to control)” value (insulin receptor (IR); […]) was 30% and the CONC. (insulin receptor (IR)) was 13 µM. For the same compound, the EC50 (insulin receptor (IR); Table II, […], no lot stated) was 13 to 20 µM.

In the case of `CC(C)n1c(Sc2ncc([N+](=O)[O-])s2)nc2ccccc21` [Compound 94, 1-Isopropyl-2-[(5-nitrothiazol-2-yl)mercapto]benzimidazole], the “response … compared with the insulin control” value (primary adipocytes) is reported as “did not give a response greater than or equal to the insulin control” and the EC50 (insulin receptor (IR); Table II, […], no lot stated) is reported as > 100 µM.

For `O=[N+]([O-])c1cnc(Sc2nc3ccccc3[nH]2)s1` [Compound 79, 2-[(5-Nitrothiazol-2-yl)mercapto]benzimidazole], the “response … compared with the insulin control” value (primary adipocytes) was “did not give a response greater than or equal to the insulin control” and the EC50 (insulin receptor (IR); Table III, […]) was 23 µM.

In the case of `Cn1nnnc1Sc1ncc([N+](=O)[O-])s1` [Compound 15], the “response … compared with the insulin control” value (primary adipocytes) is reported as “did not give a response greater than or equal to the insulin control”, the “increase in PTYR” value (insulin receptor (IR); Table II, at 50 μM, LOT2) is reported as 40% and the EC50 (insulin receptor (IR); Table II, LOT 1) is reported as 8.4 µM.

In the case of `CCn1nc(C)cc1-c1nnc(Sc2ncc([N+](=O)[O-])s2)n1CCCOC` [Compound 9, 3-(1-ethyl-3-methylpyrazol-5-yl)-4-(3-methoxy-n-propyl)-5-[5-(nitrothiazol-2-yl)mercapto]-1,2,4-triazole], the “response … compared with the insulin control” value (primary adipocytes) is reported as “did not give a response greater than or equal to the insulin control”, the “ACTIVITY (compared to control)” value (insulin receptor (IR); […]) is reported as 50% and the CONC. (insulin receptor (IR)) is reported as 3.9 µM. The EC50 (insulin receptor (IR); Table II, LOT 2) was 6 µM and the EC50 (insulin receptor (IR); Table II, LOT3) was 16 µM.

With `O=[N+]([O-])c1cnc(Sc2nc3cnccc3[nH]2)s1` [Compound 101] the “response … compared with the insulin control” value (primary adipocytes) was “did not give a response greater than or equal to the insulin control” and the EC50 (insulin receptor (IR); Table II, […], no lot stated) was 7 to 15 µM.

With `Cn1c(O)nnc1Sc1ncc([N+](=O)[O-])s1` [Compound 99] the “response … compared with the insulin control” value (primary adipocytes) was “did not give a response greater than or equal to the insulin control” and the “one point determination, effect on PTYR” value (insulin receptor (IR); Table II, at 100 μm) was “no effect”.

`Cc1ccsc1/C=C/c1ccnc(Sc2ncc([N+](=O)[O-])s2)n1` [Compound 98] was tested, and the “response … compared with the insulin control” value (primary adipocytes) was “did not give a response greater than or equal to the insulin control”.

In the case of `O=[N+]([O-])c1cnc(Sc2ncc[nH]2)s1` [Compound 87, 2-[(5-Nitrothiazol-2-yl)mercapto]imidazole], the “response … compared with the insulin control” value (primary adipocytes) is reported as “did not give a response greater than or equal to the insulin control”.

Work on `O=[N+]([O-])c1cnc(Sc2nnnn2Cc2ccccc2)s1` [Compound 80, 1-Benzyl-5-[(5-nitrothiazol-2-yl)mercapto]tetrazole] yielded an EC50 (insulin receptor (IR); Table III, […]) of 7.8 µM.

With `O=[N+]([O-])c1cnc(Sc2nc3c([nH]2)CC(Cl)C(Cl)C3)s1` (centres unmarked) [Compound 39, 5,6-Dichloro-2-[(5-nitrothiazol-2-yl)mercapto]cyclohexoimidazole] the EC50 (insulin receptor (IR); Table III, […]) was 17.5 µM.

With `O=C(CSc1nnc(Sc2ncc([N+](=O)[O-])s2)s1)Oc1ccccc1` [Compound 24, 2-[(5-Nitrothiazol-2-yl)mercapto]-5-[(phenoxycarbonyl)methylmercapto]-1,3,4-thiadiazole] the EC50 (insulin receptor (IR); Table III, […]) was > 100 µM.

Work on `C=CCn1nnnc1Sc1ncc([N+](=O)[O-])s1` [Compound 30, 1-Allyl-5-[(5-nitrothiazol-2-yl)mercapto]tetrazole] yielded an EC50 (insulin receptor (IR); Table III, […]) of 32 µM.

For `O=[N+]([O-])c1cnc(Sc2nnc(Sc3nnc(SCCCl)s3)s2)s1` [Compound 26, 2-(2-Chloroethylmercapto)-5-[[2-[(5-nitrothiazol-2-yl)mercapto]-1,3,4-thiadiazol-5-yl]mercapto]-1,3,4-thiadiazole], the EC50 (insulin receptor (IR)) was 46 µM.

For `CC(C)n1c(Sc2ncc([N+](=O)[O-])s2)nc2cc(Cl)ccc21` [Compound 96(a), 5-Chloro-1-isopropyl-2-[(5-nitrothiazol-2-l)mercapto]benzimidazole], the “response … compared with the insulin control” value (primary adipocytes) was “did not give a response greater than or equal to the insulin control”.

In the case of `CCOc1ccc(OCC)c2[nH]c(Sc3ncc([N+](=O)[O-])s3)nc12` [Compound 46, 4,7-Diethoxy-2-[(5-nitrothiazol-2-yl)mercapto]benzimidazole], the EC50 (insulin receptor (IR); Table III, […]) is reported as 9.7 µM.

For `Cc1cc(C)c(Nc2nnc(Sc3ncc([N+](=O)[O-])s3)s2)cc1C` [Compound 74, 2-[(5-Nitrothiazol-2-yl)mercapto]-5(2,4,5-trimethylphenylamino)-1,3,4-thiadiazole], the EC50 (insulin receptor (IR); Table III, […]) was > 100 µM.

With `C#CCSc1nnc(Sc2ncc([N+](=O)[O-])s2)s1` [Compound 92, 2-[(5-Nitrothiazol-2-yl)mercapto]-5-propargylmercapto-1,3,4-thiadiazole] the “response … compared with the insulin control” value (primary adipocytes) was “did not give a response greater than or equal to the insulin control”.

For `Cc1ccc2nc(Sc3ncc([N+](=O)[O-])s3)[nH]c2c1` [Compound 50, 5-Methyl-2-[(5-nitrothiazol-2-yl)mercapto]benzimidazole], the EC50 (insulin receptor (IR); Table III, […]) was > 100 µM.

`O=C(CN(c1ccccc1)c1nnc(Sc2ncc([N+](=O)[O-])s2)s1)Nc1cccc(C(F)(F)F)c1` [Compound 21, 2-[N-Phenyl-N-[3-(trifluoromethyl)phenylaminocarbonylmethyl]amino]-5-[(5-nitrothiazol-2-yl)mercapto]-1,3,4-thiadiazole] was tested, and the EC50 (insulin receptor (IR); Table III, […]) was > 50 µM.

`O=c1[nH]c(Sc2ncc([N+](=O)[O-])s2)nc2ccccc12` [Compound 35, 2-[(5-Nitrothiazol-2-yl)mercapto]-4-quinazolone] was tested, and the EC50 (insulin receptor (IR); Table III, […]) was > 25 µM.

`COC(=O)c1cnc(Sc2ncc([N+](=O)[O-])s2)n1C` [Compound 42, 4-Methoxycarbonyl-3-methyl-2-[(5-nitrothiazol-2-yl)mercapto]imidazole] showed an EC50 (insulin receptor (IR); Table III, […]) of 14 µM.

For `O=[N+]([O-])c1cnc(Sc2nccc(-c3ccc(-n4cnc(Cl)c4Cl)cc3)n2)s1` [Compound 67, 4-[4-(4,5-Dichloroimidazol-1-yl)phenyl]-2-[(5-nitrothiazol-2-yl)mercapto]pyrimidine], the EC50 (insulin receptor (IR); Table III, […]) was 3 µM.

`O=[N+]([O-])c1cnc(Sc2nc(O)c3nc(O)[nH]c3n2)s1` [Compound 37] was tested, and the EC50 (insulin receptor (IR); Table III, […]) was > 100 µM.

For `COc1ccccc1Nc1nnc(Sc2ncc([N+](=O)[O-])s2)s1` [Compound 76, 2-(2-Methoxyphenylamino)-5-[(5-nitrothiazol-2-yl)mercapto]-1,3,4-thiadiazol], the EC50 (insulin receptor (IR); Table III, […]) was 63.8 µM.

For `O=[N+]([O-])c1cnc(Nc2nc(-c3ccc(Cl)cc3)n[nH]2)s1` [Compound 10, 3-(4-chlorophenyl)-5-[(5-nitrothiazol-2-yl)amino]-1,2,4-triazole], the “dose dependence of the increase in the pTyr level” value (insulin receptor (IR); from 15.6 μM to 250 μM) was “dependent on the dose”.

`CCCn1c(Sc2ncc([N+](=O)[O-])s2)nc2c(O)nnc(O)c21` [Compound 49] showed an EC50 (insulin receptor (IR); Table III, […]) of 4 µM.

In the case of `Cn1c(Sc2ncc([N+](=O)[O-])s2)nc2cc(C(F)(F)F)cnc21` [Compound 53], the EC50 (insulin receptor (IR); Table III, […]) is reported as > 25 µM.
